Marks after values point to notes of the source that are not given here.
Experiments:
Format in all cases: in vivo
Conditions in all cases: 100 = 100% disease control
Botrytis cinerea = test: Test C: tomato Botrytis on tomato seedlings, sprayed the day before inoculation, visual disease rating
Summary of the method: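 Spray to run-off on tomato seedlings; test conc. 200 ppm (≈500 g/ha), some entries 40 ppm. Formulation: acetone 3% of final vol., then acetone/water 50:50 + 250 ppm polyhydric alcohol ester surfactant.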

Alternaria solani = test: Test D: tomato early blight, sprayed the day before inoculation, visual disease rating
Summary of the method: (§1)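 Spray suspension: acetone 3% of final volume, then 50/50 acetone/water plus 250 ppm Trem® 014. Applied to run-off on seedlings at 200 ppm (≈500 g/ha); starred entries tested at 40 ppm.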

Septoria nodorum = test: Test F: wheat glume blotch on wheat seedlings, sprayed the day before inoculation, visual disease rating
Summary of the method: as §1

Septoria tritici = test: Test G: wheat leaf blotch on wheat seedlings, sprayed the day before inoculation, visual disease rating
Summary of the method: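 Spray to run-off, 200 ppm (≈500 g/ha; starred = 40 ppm), acetone/water 50/50 + 250 ppm Trem® 014. Spore inoculation +1 d. 24° C saturated 48 h → 20° C 19 d. Visual rating.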

[1] = tested on: Puccinia recondita f. sp. tritici; test: Test H: wheat leaf rust, test suspension sprayed after inoculation of wheat seedlings, visual disease rating
Summary of the method: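 Wheat seedlings inoculated with P. recondita spores, held 24 h saturated at 20 °C, then 2 days in growth chamber at 20 °C; compound suspension (acetone/water with Trem 014) sprayed to run-off afterwards. Rated visually; 200 ppm (≈500 g/ha) unless marked *, which denotes 40 ppm.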

[2] = tested on: Puccinia recondita f. sp. tritici; test: Test I: wheat leaf rust on wheat seedlings, sprayed the day before inoculation, visual disease rating
Summary of the method: as §1

[3] = tested on: Erysiphe graminis f. sp. tritici; test: Test J: wheat powdery mildew on wheat seedlings, sprayed the day before inoculation, visual disease rating
Summary of the method: as §1

[4] = 200 ppm, 0 = no control relative to controls
[5] = 40 ppm (marked *), 0 = no control

Structure (SMILES)	Test C disease control rating (Botrytis cinerea; [4])	Test D disease control rating (Alternaria solani; [4])	Test F disease control rating (Septoria nodorum; [4])	Test G disease control rating (Septoria tritici; [4])	Test H disease control rating [1, 4]	Test I disease control rating [2, 4]	Test J disease control rating [3, 4]	Test C disease control rating (Botrytis cinerea; [5])	Test D disease control rating (Alternaria solani; [5])	Test F disease control rating (Septoria nodorum; [5])	Test G disease control rating (Septoria tritici; [5])	Test H disease control rating [1, 5]	Test I disease control rating [2, 5]	Test J disease control rating [3, 5]
Cc1nc(Cl)n(-c2ccc(Cl)c(F)c2)c1-c1scnc1Cl [compound 380]	100%	91%	0%	91%	0%	99%	99%	–	–	–	–	–	–	–
Cc1nc(Cl)n(-c2ccc(Cl)c(F)c2)c1-c1sc(Cl)nc1Cl [compound 381]	94%	0%	0%	78%	0%	0%	0%	–	–	–	–	–	–	–
Fc1cc(-n2c(Br)nc(Br)c2-c2c(F)ccc(F)c2F)ccc1Cl [compound 382]	–	–	–	–	–	–	–	100* %	99* %	0* %	96* %	0* %	95* %	97* %
Fc1ccc(F)c(-c2c(Br)nc(Br)n2-c2ccc(Cl)cc2)c1F [compound 383]	–	–	–	–	–	–	–	100* %	99* %	35* %	96* %	0* %	91* %	98* %
Fc1ccc(-n2c(Br)nc(Br)c2-c2c(F)ccc(F)c2F)cc1 [compound 384]	–	–	–	–	–	–	–	100* %	99* %	0* %	95* %	0* %	67* %	95* %
Fc1ccc(F)c(-c2c(Br)nc(Cl)n2-c2ccc(Cl)cc2)c1Cl [compound 385]	–	–	–	–	–	–	–	99* %	99* %	0* %	95* %	0* %	95* %	99* %
N#Cc1ccc(-n2cnc(Cl)c2-c2c(F)ccc(C#N)c2F)cc1 [compound 387]	0%	0%	0%	0%	0%	0%	0%	–	–	–	–	–	–	–
COc1ccc(F)c(-c2c(Cl)nc(Cl)n2-c2ccc(F)cc2)c1F [compound 390]	100%	100%	99%	95%	18%	100%	100%	–	–	–	–	–	–	–
COc1ccc(F)c(-c2c(Cl)nc(Cl)n2-c2cccc(C)c2)c1F [compound 391]	100%	99%	0%	94%	0%	99%	100%	–	–	–	–	–	–	–
COc1ccc(F)c(-c2c(Cl)nc(Cl)n2-c2ccc(Cl)c(F)c2)c1F [compound 392]	100%	100%	100%	97%	60%	99%	100%	–	–	–	–	–	–	–
COc1ccc(F)c(-c2c(Cl)nc(C)n2-c2ccc(Cl)c(F)c2)c1F [compound 393]	99%	100%	99%	95%	79%	99%	100%	–	–	–	–	–	–	–
Cn1c(-c2cnc(Cl)n2-c2ccc(Cl)cc2)nc(Cl)c1Br [compound 394]	–	–	–	–	–	–	–	3* %	0* %	0* %	28* %	0* %	45* %	0* %
COc1cc(F)c(-n2c(Cl)nc(C)c2-c2ccc(Cl)cc2)c(F)c1 [compound 396]	–	–	–	–	–	–	–	100* %	100* %	99* %	93* %	0* %	100* %	99* %
COc1cc(F)c(-n2c(Cl)nc(CCl)c2-c2ccc(Cl)cc2)c(F)c1 [compound 397]	–	–	–	–	–	–	–	100* %	98* %	0* %	94* %	0* %	88* %	13* %
CCc1cccc(-n2c(Br)nc(Cl)c2-c2c(F)ccc(OC)c2F)c1 [compound 398]	100%	80%	79%	96%	0%	79%	100%	–	–	–	–	–	–	–
COc1ccc(F)c(-c2c(Cl)nc(Cl)n2-c2ccc(Cl)c(C)c2)c1F [compound 399]	100%	99%	82%	96%	0%	82%	100%	–	–	–	–	–	–	–
COc1ccc(F)c(-c2c(Cl)nc(Cl)n2-c2cccc(OC(F)F)c2)c1F [compound 400]	100%	100%	99%	94%	0%	99%	100%	–	–	–	–	–	–	–
COc1ccc(F)c(-c2c(Cl)nc(Br)n2-c2ccc(Cl)c(C)c2)c1F [compound 401]	99%	100%	0%	96%	0%	73%	100%	–	–	–	–	–	–	–
COc1ccc(F)c(-c2c(Cl)nc(Br)n2-c2cccc(OC(F)F)c2)c1F [compound 402]	100%	100%	99%	96%	0%	94%	99%	–	–	–	–	–	–	–
Cc1ncc(Cc2ccc(F)cc2F)n1-c1ccc(Cl)cc1 [compound 403]	99%	0%	0%	97%	0%	77%	86%	–	–	–	–	–	–	–

— US20110045101A1, “FUNGICIDAL SUBSTITUTED AZOLES” (E.I. Du Pont De Nemours and Company, priority 2009, published 2011)
